Test results as given in ChEMBL document CHEMBL1201862, “PubChem BioAssay data set” (2004).
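Values below derive from 48-hour exposures of cells grown in 96-well plates, with endpoints linearly interpolated between the two concentrations bracketing the appropriate inhibition level. GI50 = concentration required for 50% inhibition of growth.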 Activity calls are given as the source filed them. Cut-off read from the data, not from the text of the source: active = GI50 up to about 1.1 µM and inactive = higher.

What was measured:
Assay in all cases: NCI-60 cell line screen, 48 h
786-0 = system: 786-0
A498 = system: A498
A549 = system: A549
ACHN = system: ACHN
BT-549 = system: BT-549
CAKI-1 = system: CAKI-1
CCRF-CEM = system: CCRF-CEM
COLO 205 = system: COLO 205
DU-145 = system: DU-145
EKVX = system: EKVX
HCC 2998 = system: HCC 2998
HCT-116 = system: HCT-116
HCT-15 = system: HCT-15
HOP-62 = system: HOP-62
HT-29 = system: HT-29
Hs-578T = system: Hs-578T
IGROV-1 = system: IGROV-1
K562 = system: K562
KM12 = system: KM12
LOX IMVI = system: LOX IMVI
M14 = system: M14
MCF7 = system: MCF7
MDA-MB-231 = system: MDA-MB-231
MDA-MB-435 = system: MDA-MB-435
MDA-N = system: MDA-N
MOLT-4 = system: MOLT-4
NCI-H23 = system: NCI-H23
NCI-H460 = system: NCI-H460
NCI-H522 = system: NCI-H522
NCI/ADR-RES = system: NCI/ADR-RES
OVCAR-3 = system: OVCAR-3
OVCAR-4 = system: OVCAR-4
OVCAR-5 = system: OVCAR-5
OVCAR-8 = system: OVCAR-8
PC-3 = system: PC-3
RPMI-8226 = system: RPMI-8226
SF-268 = system: SF-268
SF-295 = system: SF-295
SF-539 = system: SF-539
SK-MEL-28 = system: SK-MEL-28
SK-MEL-2 = system: SK-MEL-2
SK-MEL-5 = system: SK-MEL-5
SK-OV-3 = system: SK-OV-3
SN12C = system: SN12C
SNB-19 = system: SNB-19
SR = system: SR
SW-620 = system: SW-620
T47D = system: T47D
TK-10 = system: TK-10
U-251 = system: U-251
UACC-257 = system: UACC-257
UACC-62 = system: UACC-62
UO-31 = system: UO-31
HL-60 = system: HL-60
HOP-92 = system: HOP-92
Malme-3M = system: Malme-3M
NCI-H226 = system: NCI-H226
RXF 393 = system: RXF 393
SNB-75 = system: SNB-75

Measured: GI50

COC(=O)c1cc(/C=C\c2cc(OC)ccc2OC)ccc1OC
33.2 µM: HCT-15
inactive: 786-0 35.1 µM | A498 28.7 µM | A549 32.1 µM | ACHN 32.1 µM | BT-549 31.2 µM | CAKI-1 33.3 µM | CCRF-CEM 55.1 µM | COLO 205 21.2 µM | DU-145 26.9 µM | EKVX 26.1 µM | HCC 2998 22.4 µM | HCT-116 32.4 µM | HOP-62 25.6 µM | HT-29 25.6 µM | Hs-578T 40.4 µM | IGROV-1 13.7 µM | K562 6.5 µM | KM12 29.2 µM | LOX IMVI 24 µM | M14 26.1 µM | MCF7 25.6 µM | MDA-MB-231 34.4 µM | MDA-MB-435 8.81 µM | MDA-N 17.7 µM | MOLT-4 6.75 µM | NCI-H23 43.3 µM | NCI-H460 51.2 µM | NCI-H522 19.9 µM | NCI/ADR-RES 37.3 µM | OVCAR-3 24.4 µM | OVCAR-4 33.6 µM | OVCAR-5 39.4 µM | OVCAR-8 36.4 µM | PC-3 26.1 µM | RPMI-8226 18.4 µM | SF-268 32.7 µM | SF-295 30.8 µM | SF-539 38.5 µM | SK-MEL-28 18.4 µM | SK-MEL-2 24.9 µM | SK-MEL-5 17.7 µM | SK-OV-3 37.3 µM | SN12C 38.2 µM | SNB-19 34 µM | SR 10.4 µM | SW-620 38.9 µM | T47D 18.7 µM | TK-10 50.8 µM | U-251 32.3 µM | UACC-257 30.5 µM | UACC-62 22.6 µM | UO-31 30.3 µM

CCN(CC)c1ccc2cc(-c3csc(-c4ccc(N(C)C)cc4)n3)c(=O)oc2c1
> 100 µM: HCT-15
inactive: 786-0 > 100 µM | A549 > 100 µM | ACHN > 100 µM | BT-549 > 100 µM | CAKI-1 > 100 µM | CCRF-CEM > 100 µM | COLO 205 > 100 µM | DU-145 > 100 µM | EKVX > 100 µM | HCC 2998 > 100 µM | HCT-116 > 100 µM | HL-60 > 100 µM | HOP-62 > 100 µM | HOP-92 > 100 µM | HT-29 > 100 µM | Hs-578T > 100 µM | IGROV-1 > 100 µM | K562 > 100 µM | KM12 67.9 µM | LOX IMVI > 100 µM | M14 > 100 µM | MCF7 > 100 µM | MDA-MB-231 > 100 µM | MDA-MB-435 > 100 µM | MDA-N > 100 µM | MOLT-4 > 100 µM | Malme-3M > 100 µM | NCI-H226 > 100 µM | NCI-H460 > 100 µM | NCI-H522 > 100 µM | NCI/ADR-RES > 100 µM | OVCAR-4 > 100 µM | OVCAR-5 > 100 µM | OVCAR-8 > 100 µM | PC-3 > 100 µM | RPMI-8226 > 100 µM | RXF 393 > 100 µM | SF-268 > 100 µM | SF-295 > 100 µM | SF-539 > 100 µM | SK-MEL-28 > 100 µM | SK-MEL-2 > 100 µM | SK-MEL-5 > 100 µM | SK-OV-3 > 100 µM | SN12C > 100 µM | SNB-19 > 100 µM | SNB-75 23.1 µM | SR > 100 µM | SW-620 > 100 µM | T47D > 100 µM | TK-10 > 100 µM | U-251 > 100 µM | UACC-257 > 100 µM | UACC-62 > 100 µM | UO-31 > 100 µM
